In US7915402B2, “Antioxidant inflammation modulators: oleanolic acid derivatives with saturation in the C-ring” (Reata Pharmaceuticals, Inc., priority 2008, dated 2011):

What was measured:
[1] = system: IFNγ-induced NO production in RAW264.7 macrophages; assay: Suppression of IFNγ-induced NO production (Griess reagent); format: cell-based, mouse; conditions: RAW264.7, 20 ng/ml IFNγ 24 h, 2 h pre-treatment
Description: (§1) FIGS. 1-8 and 32-34. Inhibition of NO Production. RAW264.7 macrophages were pre-treated with DMSO or drugs at various concentrations (nM) for 2 hours, then treated with 20 ng/ml IFNγ for 24 hours. NO concentration in media was determined using a Griess reagent system; cell viability was determined using WST-1 reagent.
(§2) Nitric Oxide production and cell viability. RAW264.7 macrophages were pre-treated with DMSO or drugs for 2 hours, then treated with recombinant mouse IFNγ (Sigma) for 24 hours. NO concentration in media was determined using the Griess reagent system (Promega). Cell viability was determined using WST-1 reagent (Roche).

mice = assay: 9-day toxicity study in mice; format: in vivo; conditions: sesame oil, p.o. daily for 9 days
Description: In a second experiment, six additional compound differing only in the saturation or non-saturation of the C ring were tested for toxicity in mice by daily oral administration for 9 days, using sesame oil as the vehicle.

RAW264.7 macrophages = assay: Cell viability, WST-1 reagent; format: cell-based, mouse; conditions: RAW264.7 (20 ng/ml IFNγ)
Description: as §1, §2

Q: Which IC50 ([1]; Mus musculus) does the source give for `CC1(C)CC[C@]2(C(=O)OCc3ccccc3)CC[C@]3(C)[C@H](C(=O)C[C@@H]4[C@@]5(C)C=C(C#N)C(=O)C(C)(C)[C@@H]5CC[C@]43C)[C@@H]2C1` [Compound 63323, (4aS,6aR,6bR,8aR,12aR,12bR,14aR,14bS)-benzyl 11-cyano-2,2,6a,6b,9,9,12a-heptamethyl-10,14-dioxo-1,2,3,4,4a,5,6,6a,6b,7,8,8a,9,10,12a,12b,13,14,14a,14b-icosahydropicene-4a-carboxylate] here?
A: ~40 nM

Q: And the Mortality (mice; 3 mg/kg)?
A: 0/5

Q: What about the Mortality (mice; 10 mg/kg) of the same compound?
A: 0/5

Q: And the Mortality (mice; 30 mg/kg)?
A: 0/5

Q: Which IC50 ([1]; Mus musculus) does the source give for `COC(=O)[C@]12CCC(C)(C)C[C@H]1C1OC(O)C[C@@H]3[C@@]4(C)C=C(C#N)C(=O)C(C)(C)[C@@H]4CC[C@@]3(C)[C@]1(C)CC2` (stereo partly drawn) [Compound 63289, (4aR,6aR,6bS,8aS,12aR,15aR,15bR)-methyl 2-cyano-14-hydroxy-4,4,6a,6b,11,11,15b-heptamethyl-3-oxo-3,4,4a,5,6,6a,6b,7,8,8a,9,10,11,12,12a,12b,14,15,15a,15b-icosahydrodinaphtho[1,2-b:2′,1′-d]oxepine-8a-carboxylate] here?
A: > 200 nM

Q: And the IC50 (RAW264.7 macrophages; Mus musculus)?
A: > 200 nM

Q: What does the source list for `CONC(=O)[C@]12CCC(C)(C)C[C@H]1[C@H]1C(=O)C[C@@H]3[C@@]4(C)C=C(C#N)C(=O)C(C)(C)[C@@H]4CC[C@@]3(C)[C@]1(C)CC2` [Compound 63325, (4aS,6aR,6bR,8aR,12aR,12bR,14aR,14bS)-11-cyano-N-methoxy-2,2,6a,6b,9,9,12a-heptamethyl-10,14-dioxo-1,2,3,4,4a,5,6,6a,6b,7,8,8a,9,10,12a,12b,13,14,14a,14b-icosahydropicene-4a-carboxamide]?
A: IC50 ([1]; Mus musculus): ~50 nM; Mortality (mice; 3 mg/kg): 0/5; Mortality (mice; 10 mg/kg): 0/5; Mortality (mice; 30 mg/kg): 0/5

Q: What does the source list for `CC1(C)CC[C@]2(C(=O)NCC(F)(F)F)CC[C@]3(C)[C@H](C(=O)C[C@@H]4[C@@]5(C)Cc6cnoc6C(C)(C)[C@@H]5CC[C@]43C)[C@@H]2C1` [Compound 63223]?
A: IC50 [1]: > 200 nM; IC50 (RAW264.7 macrophages): > 200 nM

Q: Which IC50 [1] does the source give for `COC(=O)[C@]12CCC(C)(C)C[C@H]1[C@H]1C(=O)C[C@@H]3[C@@]4(C)Cc5cnoc5C(C)(C)[C@@H]4CC[C@@]3(C)[C@]1(C)CC2` [Compound 63195] here?
A: > 200 nM

Q: And the IC50 (RAW264.7 macrophages)?
A: > 200 nM

Q: Which IC50 ([1]; Mus musculus) does the source give for `COC(=O)[C@]12CCC(C)(C)C[C@H]1[C@H]1C(=NO)C[C@@H]3[C@@]4(C)C=C(C#N)C(=O)C(C)(C)[C@@H]4CC[C@@]3(C)[C@]1(C)CC2` [Compound 63295, (4aS,6aR,6bR,8aR,12aR,12bR,14aR,14bS)-methyl 11-cyano-14-(hydroxyimino)-2,2,6a,6b,9,9,12a-heptamethyl-10-oxo-1,2,3,4,4a,5,6,6a,6b,7,8,8a,9,10,12a,12b,13,14,14a,14b-icosahydropicene-4a-carboxylate] here?
A: ~20 nM

Q: And the IC50 (RAW264.7 macrophages; Mus musculus)?
A: > 200 nM

Q: What does the source list for `Cc1nnc([C@]23CCC(C)(C)C[C@H]2[C@H]2C(=O)C[C@@H]4[C@@]5(C)C=C(C#N)C(=O)C(C)(C)[C@@H]5CC[C@@]4(C)[C@]2(C)CC3)s1` [Compound 63274, (4aR,6aR,6bR,8aS,12aS,12bR,14aR,14bR)-4,4,6a,6b,11,11,14b-heptamethyl-8a-(5-methyl-1,3,4-thiadiazol-2-yl)-3,13-dioxo-3,4,4a,5,6,6a,6b,7,8,8a,9,10,11,12,12a,12b,13,14,14a,14b-icosahydropicene-2-carbonitrile]?
A: IC50 ([1]; Mus musculus): ~70 nM; IC50 (RAW264.7 macrophages; Mus musculus): > 200 nM

Q: Which results are given for `COC(=O)[C@]12CCC(C)(C)C[C@H]1[C@H]1C(=O)CC3[C@@]4(C)CC(C#N)=C(O)C(C)(C)[C@@H]4CC[C@@]3(C)[C@]1(C)CC2` (stereo partly drawn) [Compound 63250, (4aS,6aR,6bR,8aR,12aR,14aR,14bS)-methyl 11-cyano-10-hydroxy-2,2,6a,6b,9,9,12a-heptamethyl-14-oxo-1,2,3,4,4a,5,6,6a,6b,7,8,8a,9,12,12a,12b,13,14,14a,14b-icosahydropicene-4a-carboxylate]?
A: IC50 ([1]; Mus musculus): > 200 nM; IC50 (RAW264.7 macrophages; Mus musculus): > 200 nM

Q: How did the Mortality (mice; 3 mg/kg) turn out when `CONC(=O)[C@]12CCC(C)(C)C[C@H]1[C@H]1C(=O)C=C3[C@@]4(C)C=C(C#N)C(=O)C(C)(C)[C@@H]4CC[C@@]3(C)[C@]1(C)CC2` [Compound 63166, reference compound] was run?
A: 0/5

Q: And the Mortality (mice; 10 mg/kg)?
A: 0/5

Q: And the Mortality (mice; 30 mg/kg)?
A: 0/5

Q: How did the Mortality (mice; 3 mg/kg) turn out when `CN(C)C(=O)[C@]12CCC(C)(C)C[C@H]1[C@H]1C(=O)C=C3[C@@]4(C)C=C(C#N)C(=O)C(C)(C)[C@@H]4CC[C@@]3(C)[C@]1(C)CC2` [Compound 63324, reference compound] was run?
A: 0/5

Q: What about the Mortality (mice; 10 mg/kg) of the same compound?
A: 0/5

Q: And the Mortality (mice; 30 mg/kg)?
A: 0/5

Q: Which results are given for `CC1(C)CC[C@]2(c3nn[nH]n3)CC[C@]3(C)[C@H](C(=O)C[C@@H]4[C@@]5(C)C=C(C#N)C(=O)C(C)(C)[C@@H]5CC[C@]43C)[C@@H]2C1` [Compound 63229, (4aR,6aR,6bR,8aS,12aS,12bR,14aR,14bR)-4,4,6a,6b,11,11,14b-heptamethyl-3,13-dioxo-8a-(2H-tetrazol-5-yl)-3,4,4a,5,6,6a,6b,7,8,8a,9,10,11,12,12a,12b,13,14,14a,14b-icosahydropicene-2-carbonitrile]?
A: IC50 ([1]; Mus musculus): > 200 nM; IC50 (RAW264.7 macrophages; Mus musculus): > 200 nM

Q: How did the IC50 ([1]; Mus musculus) turn out when `CC1(C)CC[C@]2(C(=O)NCC(F)(F)F)CC[C@]3(C)[C@H](C(=O)C[C@@H]4[C@@]5(C)CC(C#N)C(=O)C(C)(C)[C@@H]5CC[C@]43C)[C@@H]2C1` (stereo partly drawn) [Compound 63227, (4aS,6aR,6bR,8aR,12aR,12bR,14aR,14bS)-11-cyano-2,2,6a,6b,9,9,12a-heptamethyl-10,14-dioxo-N-(2,2,2-trifluoroethyl)docosahydropicene-4a-carboxamide] was run?
A: > 200 nM

Q: What about the IC50 (RAW264.7 macrophages; Mus musculus) of the same compound?
A: > 200 nM

Q: Which results are given for `CC1(C)CC[C@]2(C(=O)NCC(F)(F)F)CC[C@]3(C)[C@H]([C@H](O)C[C@@H]4[C@@]5(C)C=C(C#N)C(=O)C(C)(C)[C@@H]5CC[C@]43C)[C@@H]2C1` [Compound 63268]?
A: IC50 [1]: > 200 nM; IC50 (RAW264.7 macrophages): > 200 nM

Q: For `CC(=O)[C@]12CCC(C)(C)C[C@H]1[C@H]1C(=O)C[C@@H]3[C@@]4(C)C=C(C#N)C(=O)C(C)(C)[C@@H]4CC[C@@]3(C)[C@]1(C)CC2` [Compound 63308, (4aR,6aR,6bR,8aS,12aS,12bR,14aR,14bR)-8a-acetyl-4,4,6a,6b,11,11,14b-heptamethyl-3,13-dioxo-3,4,4a,5,6,6a,6b,7,8,8a,9,10,11,12,12a,12b,13,14,14a,14b-icosahydropicene-2-carbonitrile], which IC50 ([1]; Mus musculus) is on record?
A: ~25 nM

Q: What about the IC50 (RAW264.7 macrophages; Mus musculus) of the same compound?
A: > 200 nM

Q: What does the source list for `Cn1nnc([C@]23CCC(C)(C)C[C@H]2[C@H]2C(=O)C[C@@H]4[C@@]5(C)C=C(C#N)C(=O)C(C)(C)[C@@H]5CC[C@@]4(C)[C@]2(C)CC3)n1` [Compound 63230, (4aR,6aR,6bR,8aS,12aS,12bR,14aR,14bR)-4,4,6a,6b,11,11,14b-heptamethyl-8a-(2-methyl-2H-tetrazol-5-yl)-3,13-dioxo-3,4,4a,5,6,6a,6b,7,8,8a,9,10,11,12,12a,12b,13,14,14a,14b-icosahydropicene-2-carbonitrile]?
A: IC50 ([1]; Mus musculus): ~50 nM; IC50 (RAW264.7 macrophages; Mus musculus): > 200 nM

Q: For `COC(=O)[C@]12CCC(C)(C)C[C@H]1[C@H]1NC(=O)C[C@@H]3[C@@]4(C)C=C(C#N)C(=O)C(C)(C)[C@@H]4CC[C@@]3(C)[C@]1(C)CC2` [Compound 63296, (4aR,6aR,6bS,8aS,12aR,12bR,15aR,15bR)-methyl 2-cyano-4,4,6a,6b,11,11,15b-heptamethyl-3,14-dioxo-4,4a,5,6,6a,6b,7,8,8a,9,10,11,12,12a,12b,13,14,15,15a,15b-icosahydro-3H-dinaphtho[1,2-b:2′,1′-d]azepine-8a-carboxylate], which IC50 ([1]; Mus musculus) is on record?
A: ~200 nM

Q: What about the IC50 (RAW264.7 macrophages; Mus musculus) of the same compound?
A: > 200 nM
